Measurements: patent US9808448B2, “Pharmaceutical compounds and use of same in cancer and tauopathies” (THE REGENTS OF THE UNIVERSITY OF MICHIGAN, priority 2013, dated 2017)
pKd: −log10 of the molar value.

Legend:
human Hsc70 = molecular target: T1, human Hsc70 (Homo sapiens, UniProt P11142); assay: Binding of tau to immobilized human Hsc70; assay type: biochemical
T1 construct: made in house
Protocol: Next, the effect of chaperone functions by binding of YM-08 to Hsp70 was investigated. […] This profile is shared with other allosteric Hsp70 inhibitors. As another test of chaperone function, the effects of the compounds on the binding of Hsp70 to a misfolded protein were measured. In previous work, MKT-077 stabilized the interaction between prokaryotic Hsp70 (DnaK) and denatured luciferase. Briefly, this assay involves immobilizing unfolded luciferase in microtiter plates and measuring binding to DnaK. […] To explore whether YM-08 might also enhance binding of Hsp70 to a more physiologically relevant substrate, binding of tau to immobilized human Hsc70 was measured.
Binding of prokaryotic Hsp70 (DnaK) to denatured luciferase was measured as previously described, in e.g., Miyata, et al., J. Biomol. Screen, 15:1211-1219 (2010). Briefly, firefly luciferase (0.2 mg/mL) was proteolyzed with trypsin and immobilized in 96-well microtiter plates. After washing, the binding of luciferase to DnaK (500 nM) was measured using an anti-DnaK antibody and HRP secondary antibody. A similar strategy was used to monitor binding of human Hsc70 to tau, as previously described in Thompson, et al., ACS Chem. Biol., 7:1677-1686 (2012).

Hsp72 (HSPA1) = molecular target: T2, Hsp72 (HSPA1) (Homo sapiens, UniProt P0DMV8); assay: Biolayer interferometry (Octet Red), Hsp72; assay type: binding; conditions: immobilized full length Hsp72
T2 construct: Biotinylated human Hsc70NBD or full length Hsp72 were first immobilized; made in house
T2 sequence (P0DMV8 whole entry): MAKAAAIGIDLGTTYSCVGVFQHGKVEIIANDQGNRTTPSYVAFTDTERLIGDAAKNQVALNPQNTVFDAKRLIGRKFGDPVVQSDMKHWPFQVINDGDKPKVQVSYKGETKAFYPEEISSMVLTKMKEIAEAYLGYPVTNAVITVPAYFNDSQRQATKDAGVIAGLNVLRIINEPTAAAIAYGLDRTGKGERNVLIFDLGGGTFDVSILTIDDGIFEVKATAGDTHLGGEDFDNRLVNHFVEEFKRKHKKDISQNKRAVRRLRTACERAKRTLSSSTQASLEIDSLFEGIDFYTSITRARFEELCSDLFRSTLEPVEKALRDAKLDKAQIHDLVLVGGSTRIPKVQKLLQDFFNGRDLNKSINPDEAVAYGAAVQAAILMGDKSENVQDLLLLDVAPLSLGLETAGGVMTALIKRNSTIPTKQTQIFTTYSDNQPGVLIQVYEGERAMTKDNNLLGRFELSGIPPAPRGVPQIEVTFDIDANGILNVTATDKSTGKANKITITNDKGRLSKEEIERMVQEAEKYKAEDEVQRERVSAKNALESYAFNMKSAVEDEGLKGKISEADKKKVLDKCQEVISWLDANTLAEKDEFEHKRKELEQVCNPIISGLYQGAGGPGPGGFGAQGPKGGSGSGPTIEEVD
Protocol: Binding of MKT-077 analogs to immobilized Hsp70 was evaluated using a competitive ELISA. In this established assay, a biotinylated version of MKT-077 is bound to immobilized human Hsc70 (HSPA8) and potential competitors are tested for their ability to block the interaction. […] As further controls, the truncated compounds YM-02, YM-03, YM-04 and YM-07 were tested.
Biotinylated human Hsc70NBD or full length Hsp72 were first immobilized on super streptavidin biosensors (ForteBio, 18-5057) as follows: biosensors were soaked with MG buffer (100 mM Tris base, 20 mM KCl, 6 mM MgCl2, 0.01% Triton X-100, pH 7.4) for 10 min before moving them to wells either containing 200 μL […] biotinylated proteins or […] biocytin for 60 min. The free streptavidin sites were subsequently quenched with […] biocytin for 10 min. The biosensors were washed with MG buffer for 5 min prior to beginning the binding experiments. The association and disassociation steps were carried out in MG buffer with a constant 10% DMSO concentration. All steps were performed at room temperature and with 1000 rpm rotary shaking. […] The apparent affinities of YM-08 for Hsc70NBD and Hsp72 were calculated from both equilibrium measurements and global fits of the kon and koff values, yielding similar values.

[1] = Liver microsome stability; assay type: in vitro ADME; conditions: human, liver microsomes
[2] = Pharmacokinetics of YM-08 in plasma and brain, CD1 mice; assay type: in vivo, mouse
Protocol: The initial pharmacokinetics (PK) of YM-01 and YM-08 were tested in CD1 mice. […] After a single 6.6 mg/kg dose delivered i.v., the peak brain concentration of YM-08 was 4 μg/g (FIG. 7B) and the ratio in the brain:plasma (B/P) ratio was approximately 0.25 for 18 hrs (FIG. 7C). […] It is not yet clear how much tau levels need to be reduced to achieve therapeutic effects in disease models, but the area-under-the-curve (AUCinf) for YM-08 in the brain was 0.26 μg·hr/g and the AUCinf in plasma was 13.6 μg·hr/mL.
Female CD-1 mice (25-30 g in body weight) were purchased from Charles River Laboratories (Wilmington, Mass.). Mice were treated with 6 mg/kg YM-08 through the tail-vein injection. The plasma and brain were collected at 0.016, 0.08, 0.16, 0.25, 0.5, 1, 2, 4, 6, 13, 18, 24 and 48 h after drug administration. Whole blood samples were drawn through the cardiac puncture using a heparinized syringe with a 22 gauge needle, followed by centrifugation at 3,000 g for 10 min at 4° C. to obtain plasma. Collected tissues were washed with PBS, immediately frozen using liquid nitrogen, and stored at −80° C. until further analysis. Tissue homogenates were prepared by adding PBS (1:5 w/v, homogenate/PBS) and homogenization for 3 min. Compound was extracted from 100 μL of sample by adding 300 μL of acetonitrile containing 50 ng/mL IS, followed by vortexing for 3 min. The supernatant was collected and subjected to LC-MS/MS analysis.
The separation of YM-08 and internal standard was performed using Agilent 1200 HPLC system (Agilent Technologies, Santa Clara, Calif.) and Zobarx SB-C18 column (2.1×50 mm, 3.5 μm) (Agilent Technologies). […] The compounds were eluted with an fixed gradient of 20% solvent A and 80% of solvent B. Solvent A consisted of 0.1% (v/v) glacial acetic acid in water and solvent B consisted of 0.1% (v/v) glacial acetic acid in acetonitrile. After injecting 10 μl of samples into HPLC system, the elution was performed over 2 min at a flow rate of 0.4 ml/min. The YM-08 and MKT-077 eluents were detected using QTRAP 3200 mass spectrometer (Applied Biosystems/MDS Sciex, Foster City, Calif.) equipped with an electrospray ionization source (ESI). The temperature of ESI was set at 650° C. and curtain gas, gas 1, and gas 2 were set to 30, 50, and 50 units, respectively. A positive voltage at 5500 V was applied through ESI to convert the eluents to ions in the form of MH+. The ions were detected using a MRM mode. The ion transitions from the precursor ion (m/z 368) to the fragment ion (m/z=222) and from the precursor ion (m/z 396) to the fragment ion (m/z=175) were used to detect YM-08 and IS, respectively.

T1 sequence (P11142 2-646): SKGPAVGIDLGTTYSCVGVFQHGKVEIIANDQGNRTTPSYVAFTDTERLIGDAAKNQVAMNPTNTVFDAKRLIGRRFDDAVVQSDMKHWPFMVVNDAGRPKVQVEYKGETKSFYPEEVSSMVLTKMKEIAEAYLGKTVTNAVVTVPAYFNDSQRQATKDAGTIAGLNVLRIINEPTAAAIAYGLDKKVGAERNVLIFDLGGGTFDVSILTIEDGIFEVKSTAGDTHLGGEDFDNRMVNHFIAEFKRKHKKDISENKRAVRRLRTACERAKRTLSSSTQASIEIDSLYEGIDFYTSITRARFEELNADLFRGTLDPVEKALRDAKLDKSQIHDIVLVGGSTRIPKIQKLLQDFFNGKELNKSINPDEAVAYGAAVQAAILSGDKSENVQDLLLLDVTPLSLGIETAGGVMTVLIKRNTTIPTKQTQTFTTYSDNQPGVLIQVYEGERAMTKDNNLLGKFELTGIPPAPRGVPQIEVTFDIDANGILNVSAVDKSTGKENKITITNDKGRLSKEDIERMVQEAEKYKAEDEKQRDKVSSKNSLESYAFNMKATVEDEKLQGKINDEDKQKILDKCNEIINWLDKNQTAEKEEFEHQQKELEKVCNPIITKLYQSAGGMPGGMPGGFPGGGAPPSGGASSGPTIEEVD

SMILES: CCn1c(=O)/c(=C2\Sc3ccccc3N2C)s/c1=C\c1ccccn1 [YM-08, (2Z,5E)-3-ethyl-5-(3-methylbenzo[d]thiazol-2(3H)-ylidene)-2-(pyridin-2-ylmethylene)thiazolidin-4-one]
- affinity of chaperone for tau substrate (human Hsc70): enhanced the affinity
- pKd (Hsp72 (HSPA1)): ~5.70
- half-life [1]: 2 to 4 min
- half-life ([1]; figure legend): ~4 min
- AUCinf in the brain ([2]; 6.6 mg/kg i.v.): 0.26 µg·h/g
- half-life ([2]; female, CD-1, mouse, brain, iv, 6.6 mg/kg i.v., read-out: terminal halftime in the brain (t1/2; brain) (converted)): 6.8 h
- Kp at 18 h ([2]; female, CD-1, mouse, brain/plasma, iv, 6.6 mg/kg, 6.6 mg/kg i.v., for 18 hrs, read-out: brain:plasma (B/P) ratio): ~0.25
- AUC(0-inf) ([2]; female, CD-1, mouse, plasma, iv, 6.6 mg/kg i.v., read-out: AUCinf in plasma): 13600 ng·h/mL
- half-life ([2]; female, CD-1, mouse, plasma, iv, 6.6 mg/kg i.v., read-out: t1/2, plasma (converted)): 9.8 h
- peak brain concentration ([2]; single 6.6 mg/kg i.v., Cremophor mixture): 4 µg/g
